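GI50 is the concentration that inhibits growth by half. TGI is the concentration that stops growth completely.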
What was measured:
Assay in all cases: DTP human tumour cell line panel, 384-well format
[1] = test system: A498 renal
[2] = test system: NCI-H322M lung
[3] = test system: SF-539 CNS
[4] = test system: HCC-2998 colon
[5] = test system: SK-MEL-5 melanoma
[6] = test system: HT29 colon
[7] = test system: SW-620 colon
[8] = test system: COLO 205 colon
[9] = test system: SR leukemia
[10] = test system: MALME-3M melanoma
[11] = test system: OVCAR-4 ovarian
[12] = test system: CCRF-CEM leukemia
[13] = test system: OVCAR-3 ovarian
[14] = test system: MDA-MB-435 melanoma
[15] = test system: UACC-257 melanoma
[16] = test system: U251 glioblastoma
[17] = test system: CAKI-1 renal
[18] = test system: NCI-H522 lung
[19] = test system: NCI/ADR-RES ovarian
[20] = test system: HOP-92 NSCLC
[21] = test system: MCF7 breast
[22] = test system: HL-60(TB) leukemia
[23] = test system: A549 NSCLC
[24] = test system: HCT-116 colon
[25] = test system: SN12C renal
[26] = test system: HCT-15 colon
[27] = test system: PC-3 prostate
[28] = test system: NCI-H226 lung
[29] = test system: SF-295 CNS
[30] = test system: UACC-62 melanoma
[31] = test system: BT-549 breast
[32] = test system: SF-268 CNS
[33] = test system: TK-10 renal
[34] = test system: T-47D breast
[35] = test system: HOP-62 NSCLC
[36] = test system: SK-OV-3 ovarian
[37] = test system: SK-MEL-28 melanoma
[38] = test system: NCI-H23 lung
[39] = test system: MDA-MB-231 breast
[40] = test system: RPMI-8226 leukemia
[41] = test system: OVCAR-8 ovarian
[42] = test system: SK-MEL-2 melanoma
[43] = test system: K-562 leukemia
[44] = test system: ACHN renal
[45] = test system: RXF 393 renal
[46] = test system: MDA-MB-468 breast
[47] = test system: MOLT-4 leukemia
[48] = test system: 786-0 renal
[49] = test system: UO-31 renal
[50] = test system: LOX IMVI melanoma
[51] = test system: M14 melanoma
[52] = test system: KM12 colon
[53] = test system: OVCAR-5 ovarian
[54] = test system: NCI-H460 NSCLC
[55] = test system: DU-145 prostate
[56] = test system: SNB-19 CNS
[57] = test system: IGROV1 ovarian

Work on CCN(c1cc(C#CCN2CCOCC2)cc(C(=O)NCc2c(C)cc(C)[nH]c2=O)c1C)C1CCC(N(C)CCOC)CC1 (centres undefined) yielded a GI50 [1] of 91.1 µM, a TGI [1] greater than 100 µM and a GI50 [2] greater than 100 µM. For the same molecule, the TGI [2] was greater than 100 µM, the GI50 [3] was greater than 100 µM and the TGI [3] was greater than 100 µM. The GI50 [4] was 8.42 µM, the TGI [4] was 92.5 µM and the GI50 [5] was greater than 100 µM. It also gave a TGI [5] greater than 100 µM, a GI50 [6] greater than 100 µM and a TGI [6] greater than 100 µM. For the same molecule, the GI50 [7] was greater than 100 µM, the TGI [7] was greater than 100 µM and the GI50 [8] was greater than 100 µM. It also gave a TGI [8] greater than 100 µM, a GI50 [9] of 82.8 µM and a TGI [9] greater than 100 µM. It also gave a GI50 [10] greater than 100 µM, a TGI [10] greater than 100 µM and a GI50 [11] of 51.4 µM. It also gave a TGI [11] greater than 100 µM, a GI50 [12] of 4.63 µM and a TGI [12] of 21.4 µM. It also gave a GI50 [13] of 40.6 µM, a TGI [13] greater than 100 µM and a GI50 [14] greater than 100 µM. The TGI [14] was greater than 100 µM, the GI50 [15] was greater than 100 µM and the TGI [15] was greater than 100 µM. The GI50 [16] was greater than 100 µM, the TGI [16] was greater than 100 µM and the GI50 [17] was greater than 100 µM. It also gave a TGI [17] greater than 100 µM, a GI50 [18] of 32.8 µM and a TGI [18] greater than 100 µM. For the same molecule, the GI50 [19] was greater than 100 µM, the TGI [19] was greater than 100 µM and the GI50 [20] was 2550 nM. It also gave a TGI [20] of 34.7 µM, a GI50 [21] greater than 100 µM and a TGI [21] greater than 100 µM. It also gave a GI50 [22] greater than 100 µM, a TGI [22] greater than 100 µM and a GI50 [23] greater than 100 µM. The TGI [23] was greater than 100 µM, the GI50 [24] was greater than 100 µM and the TGI [24] was greater than 100 µM. It also gave a GI50 [25] greater than 100 µM, a TGI [25] greater than 100 µM and a GI50 [26] greater than 100 µM. The TGI [26] was greater than 100 µM, the GI50 [27] was greater than 100 µM and the TGI [27] was greater than 100 µM. For the same molecule, the GI50 [28] was 55.9 µM, the TGI [28] was greater than 100 µM and the GI50 [29] was greater than 100 µM. The TGI [29] was greater than 100 µM, the GI50 [30] was 51.3 µM and the TGI [30] was greater than 100 µM. The GI50 [31] was greater than 100 µM, the TGI [31] was greater than 100 µM and the GI50 [32] was greater than 100 µM. The TGI [32] was greater than 100 µM, the GI50 [33] was greater than 100 µM and the TGI [33] was greater than 100 µM. The GI50 [34] was greater than 100 µM, the TGI [34] was greater than 100 µM and the GI50 [35] was 67.2 µM. For the same molecule, the TGI [35] was greater than 100 µM, the GI50 [36] was greater than 100 µM and the TGI [36] was greater than 100 µM. It also gave a GI50 [37] greater than 100 µM, a TGI [37] greater than 100 µM and a GI50 [38] greater than 100 µM. For the same molecule, the TGI [38] was greater than 100 µM, the GI50 [39] was 24.1 µM and the TGI [39] was greater than 100 µM. It also gave a GI50 [40] of 25.4 nM, a TGI [40] of 193 nM and a GI50 [41] greater than 100 µM. The TGI [41] was greater than 100 µM, the GI50 [42] was 72.9 µM and the TGI [42] was greater than 100 µM. For the same molecule, the GI50 [43] was greater than 100 µM, the TGI [43] was greater than 100 µM and the GI50 [44] was greater than 100 µM. For the same molecule, the TGI [44] was greater than 100 µM, the GI50 [45] was 3.37 µM and the TGI [45] was greater than 100 µM. For the same molecule, the GI50 [46] was 58.4 µM, the TGI [46] was greater than 100 µM and the GI50 [47] was 1450 nM. For the same molecule, the TGI [47] was 3.55 µM, the GI50 [48] was greater than 100 µM and the TGI [48] was greater than 100 µM. For the same molecule, the GI50 [49] was greater than 100 µM, the TGI [49] was greater than 100 µM and the GI50 [50] was greater than 100 µM. For the same molecule, the TGI [50] was greater than 100 µM, the GI50 [51] was greater than 100 µM and the TGI [51] was greater than 100 µM. The GI50 [52] was greater than 100 µM, the TGI [52] was greater than 100 µM and the GI50 [53] was greater than 100 µM. For the same molecule, the TGI [53] was greater than 100 µM, the GI50 [54] was greater than 100 µM and the TGI [54] was greater than 100 µM. The GI50 [55] was greater than 100 µM, the TGI [55] was greater than 100 µM and the GI50 [56] was greater than 100 µM. The TGI [56] was greater than 100 µM, the GI50 [57] was greater than 100 µM and the TGI [57] was greater than 100 µM.

Reference: PubChem BioAssay (NCI)
